Measured values published in ChEMBL document CHEMBL4308841, “Synthesis, in vitro antiproliferative activity, and kinase inhibitory effects of pyrazole-containing diarylureas and diarylamides” (Eur J Med Chem, 2018).

Experiments:
A549 = assay: Growth inhibition of human A549/ATCC cells incubated for 48 hrs by sulforhodamine B assay; assay type: functional, cell-based; conditions: A549, 48 h
HCT-116 [1] = assay: Growth inhibition of human HCT116 cells incubated for 48 hrs by sulforhodamine B assay; assay type: functional, cell-based; conditions: HCT-116, 48 h
SF-295 = assay: Growth inhibition of human SF295 cells incubated for 48 hrs by sulforhodamine B assay; assay type: functional, cell-based; conditions: SF-295, 48 h
SK-MEL-28 = assay: Growth inhibition of human SK-MEL-28 cells incubated for 48 hrs by sulforhodamine B assay; assay type: functional, cell-based; conditions: SK-MEL-28, 48 h
MDA-MB-231 [2] = assay: Growth inhibition of human MDA-MB-231 cells incubated for 48 hrs by sulforhodamine B assay; assay type: functional, cell-based; conditions: MDA-MB-231, 48 h
T47D [3] = assay: Growth inhibition of human T47D cells incubated for 48 hrs by sulforhodamine B assay; assay type: functional, cell-based
K562 = assay: Growth inhibition of human K562 cells assessed as cell growth at 0.01 uM incubated for 48 hrs by sulforhodamine B assay relative to control; assay type: functional; conditions: K562, 48 h, read-out: Activity
Malme-3M = assay: Growth inhibition of human MALME-3M cells assessed as cell growth at 0.01 uM incubated for 48 hrs by sulforhodamine B assay relative to control; assay type: functional; conditions: read-out: Activity
OVCAR-8 = assay: Growth inhibition of human OVCAR8 cells assessed as cell growth at 0.01 uM incubated for 48 hrs by sulforhodamine B assay relative to control; assay type: functional; conditions: OVCAR-8, 48 h, read-out: Activity
A498 = assay: Growth inhibition of human A498 cells assessed as cell growth at 0.01 uM incubated for 48 hrs by sulforhodamine B assay relative to control; assay type: functional; conditions: A498, 48 h, read-out: Activity
CAKI-1 = assay: Growth inhibition of human Caki1 cells assessed as cell growth at 0.01 uM incubated for 48 hrs by sulforhodamine B assay relative to control; assay type: functional; conditions: CAKI-1, 48 h, read-out: Activity
NCI-H460 = assay: Growth inhibition of human NCI-H460 cells assessed as cell growth at 0.1 uM incubated for 48 hrs by sulforhodamine B assay relative to control; assay type: functional; conditions: NCI-H460, 48 h, read-out: Activity
HCT-116 [4] = assay: Growth inhibition of human HCT116 cells assessed as cell growth at 0.1 uM incubated for 48 hrs by sulforhodamine B assay relative to control; assay type: functional; conditions: HCT-116, 48 h, read-out: Activity
IGROV-1 = assay: Growth inhibition of human IGROV1 cells assessed as cell growth at 0.1 uM incubated for 48 hrs by sulforhodamine B assay relative to control; assay type: functional; conditions: IGROV-1, 48 h, read-out: Activity
NCI/ADR-RES = assay: Growth inhibition of human NCI/ADR-RES cells assessed as cell growth at 0.1 uM incubated for 48 hrs by sulforhodamine B assay relative to control; assay type: functional; conditions: read-out: Activity
ACHN = assay: Growth inhibition of human ACHN cells assessed as cell growth at 0.1 uM incubated for 48 hrs by sulforhodamine B assay relative to control; assay type: functional; conditions: read-out: Activity
MCF7 = assay: Growth inhibition of human MCF7 cells assessed as cell growth at 0.1 uM incubated for 48 hrs by sulforhodamine B assay relative to control; assay type: functional; conditions: MCF7, 48 h, read-out: Activity
T47D [5] = assay: Growth inhibition of human T47D cells assessed as cell growth at 0.1 uM incubated for 48 hrs by sulforhodamine B assay relative to control; assay type: functional; conditions: read-out: Activity
SNB-75 = assay: Growth inhibition of human SNB75 cells assessed as cell growth at 1 uM incubated for 48 hrs by sulforhodamine B assay relative to control; assay type: functional; conditions: SNB-75, 48 h, read-out: Activity
MDA-MB-435 = assay: Growth inhibition of human MDA-MB-435 cells assessed as cell growth at 1 uM incubated for 48 hrs by sulforhodamine B assay relative to control; assay type: functional; conditions: MDA-MB-435, 48 h, read-out: Activity
UACC-62 [6] = assay: Growth inhibition of human UACC62 cells assessed as cell growth at 1 uM incubated for 48 hrs by sulforhodamine B assay relative to control; assay type: functional; conditions: UACC-62, 48 h, read-out: Activity
RXF 393 = assay: Growth inhibition of human RXF393 cells assessed as cell growth at 1 uM incubated for 48 hrs by sulforhodamine B assay relative to control; assay type: functional; conditions: RXF 393, 48 h, read-out: Activity
DU-145 [7] = assay: Growth inhibition of human DU145 cells assessed as cell growth at 1 uM incubated for 48 hrs by sulforhodamine B assay relative to control; assay type: functional; conditions: DU-145, 48 h, read-out: Activity
T47D [8] = assay: Growth inhibition of human T47D cells assessed as cell growth at 1 uM incubated for 48 hrs by sulforhodamine B assay relative to control; assay type: functional; conditions: read-out: Activity
KM12 = assay: Growth inhibition of human KM12 cells assessed as cell growth at 100 uM incubated for 48 hrs by sulforhodamine B assay relative to control; assay type: functional; conditions: KM12, 48 h, read-out: Activity
SK-MEL-2 = assay: Growth inhibition of human SK-MEL-2 cells assessed as cell growth at 100 uM incubated for 48 hrs by sulforhodamine B assay relative to control; assay type: functional; conditions: SK-MEL-2, 48 h, read-out: Activity
UACC-62 [9] = assay: Growth inhibition of human UACC62 cells assessed as cell growth at 100 uM incubated for 48 hrs by sulforhodamine B assay relative to control; assay type: functional; conditions: UACC-62, 48 h, read-out: Activity
DU-145 [10] = assay: Growth inhibition of human DU145 cells assessed as cell growth at 100 uM incubated for 48 hrs by sulforhodamine B assay relative to control; assay type: functional; conditions: DU-145, 48 h, read-out: Activity
MDA-MB-231 [11] = assay: Growth inhibition of human MDA-MB-231 cells assessed as cell growth at 100 uM incubated for 48 hrs by sulforhodamine B assay relative to control; assay type: functional; conditions: MDA-MB-231, 48 h, read-out: Activity
[12] = read-out: LC50 (the source's name)
[13] = read-out: pLC50 (the source's name) (converted)

O=C(Nc1cccc(-n2cc(-c3ccncc3)c(-c3cc(O)cc(Cl)c3)n2)c1)c1ccc(N2CCOCC2)c(C(F)(F)F)c1
IC50 (A549): 1.64 µM
GI50 (A549; read-out: GI50): 1.54 µM
CC50 (A549; [12]): > 100 µM
TGI (A549; read-out: TGI): 18 µM
GI50 (A549; read-out: pGI50 (converted)): 1.66 µM
CC50 (A549; [13]): > 100 µM
TGI (A549; read-out: pTGI (converted)): 18.2 µM
IC50 (HCT-116 [1]): 1.96 µM
GI50 (HCT-116 [1]; read-out: GI50): 1.96 µM
CC50 (HCT-116 [1]; [12]): > 100 µM
TGI (HCT-116 [1]; read-out: TGI): > 100 µM
GI50 (HCT-116 [1]; read-out: pGI50 (converted)): 1.95 µM
CC50 (HCT-116 [1]; [13]): > 100 µM
TGI (HCT-116 [1]; read-out: pTGI (converted)): > 100 µM
GI50 (SF-295; read-out: GI50): 0.514 µM
CC50 (SF-295; [12]): 25.1 µM
TGI (SF-295; read-out: TGI): 27.8 µM
GI50 (SF-295; read-out: pGI50 (converted)): 0.617 µM
CC50 (SF-295; [13]): 28.2 µM
TGI (SF-295; read-out: pTGI (converted)): 2.75 µM
GI50 (SK-MEL-28; read-out: GI50): 0.759 µM
CC50 (SK-MEL-28; [12]): > 100 µM
TGI (SK-MEL-28; read-out: TGI): 32.7 µM
GI50 (SK-MEL-28; read-out: pGI50 (converted)): 0.759 µM
CC50 (SK-MEL-28; [13]): > 100 µM
TGI (SK-MEL-28; read-out: pTGI (converted)): 3.24 µM
GI50 (MDA-MB-231 [2]; read-out: GI50): 0.327 µM
CC50 (MDA-MB-231 [2]; [12]): 27 µM
TGI (MDA-MB-231 [2]; read-out: TGI): 16.6 µM
GI50 (MDA-MB-231 [2]; read-out: pGI50 (converted)): 0.324 µM
CC50 (MDA-MB-231 [2]; [13]): 26.9 µM
TGI (MDA-MB-231 [2]; read-out: pTGI (converted)): 1.66 µM
GI50 (T47D [3]; read-out: GI50): 3.81 µM
CC50 (T47D [3]; [12]): > 100 µM
TGI (T47D [3]; read-out: TGI): > 100 µM
GI50 (T47D [3]; read-out: pGI50 (converted)): 3.8 µM
CC50 (T47D [3]; [13]): > 100 µM
TGI (T47D [3]; read-out: pTGI (converted)): > 100 µM
growth at 0.01 µM (K562): 113%
growth at 0.01 µM (Malme-3M): 58%
growth at 0.01 µM (OVCAR-8): 101%
growth at 0.01 µM (A498): 97%
growth at 0.01 µM (CAKI-1): 98%
growth at 0.1 µM (NCI-H460): 104%
growth at 0.1 µM (HCT-116 [4]): 102%
growth at 0.1 µM (IGROV-1): 103%
growth at 0.1 µM (NCI/ADR-RES): 103%
growth at 0.1 µM (ACHN): 99%
growth at 0.1 µM (MCF7): 87%
growth at 0.1 µM (T47D [5]): 98%
growth at 1 µM (SNB-75): 45%
growth at 1 µM (MDA-MB-435): 54%
growth at 1 µM (UACC-62 [6]): 58%
growth at 1 µM (RXF 393): 13%
growth at 1 µM (DU-145 [7]): 92%
growth at 1 µM (T47D [8]): 80%
growth at 100 µM (KM12): 4%
growth at 100 µM (SK-MEL-2): -30%
growth at 100 µM (UACC-62 [9]): -31%
growth at 100 µM (DU-145 [10]): 13%
growth at 100 µM (MDA-MB-231 [11]): -58%
